According to BindingDB's records for doi:10.1021/jm00381a002 (1985):
Where a SMILES comes first, the peptide text is derived from it.

Molecular target: gastrin/CCK-B receptor (Rattus norvegicus)
Experiment: Inhibitory activity against binding of [125I](Nle11)-HG-13 to gastrin receptor in vitro

Row | Structure (SMILES) | IC50 [µM]
1 | CC(C)CC(NC(=O)[C@H](Cc1c[nH]c2ccccc12)NC(=O)OC(C)(C)C)C(=O)N[C@@H](CC(=O)O)C(N)=O (some centres not stated) [3-{2-[2-tert-Butoxycarbonylamino-3-(1H-indol-3-yl)-propionylamino]-4-methyl-pentanoylamino}-succinamic acid] | 50
2 | CSCC[C@H](NC(=O)[C@H](Cc1c[nH]c2ccccc12)NC(=O)OC(C)(C)C)C(=O)N[C@@H](CC(=O)O)C(N)=O [3-{2-[2-tert-Butoxycarbonylamino-3-(1H-indol-3-yl)-propionylamino]-4-methylsulfanyl-butyrylamino}-succinamic acid] (HELM PEPTIDE1{[CC(C)(C)OC(=O)[*:2]].W.M.D.[am]}$$$$V2.0) | 30
3 | CC(C)C[C@H](NC(=O)[C@H](Cc1c[nH]c2ccccc12)NC(=O)OCc1ccccc1)C(=O)N[C@@H](CC(=O)O)C(N)=O [3-{2-[2-Benzyloxycarbonylamino-3-(1H-indol-3-yl)-propionylamino]-4-methyl-pentanoylamino}-succinamic acid] (HELM PEPTIDE1{[O=C(OCc1ccccc1)[*:2]].W.L.D.[am]}$$$$V2.0) | 40
4 | CC(C)C[C@H](NC(=O)[C@H](Cc1c[nH]c2ccccc12)NC(=O)OC(C)(C)C)C(=O)N[C@@H](C)C(N)=O [[1-[1-(1-Carbamoyl-ethylcarbamoyl)-3-methyl-butylcarbamoyl]-2-(1H-indol-3-yl)-ethyl]-carbamic acid tert-butyl ester] (HELM PEPTIDE1{[CC(C)(C)OC(=O)[*:2]].W.L.A.[am]}$$$$V2.0) | 150
5 | CSCC[C@H](NC(=O)[C@H](Cc1c[nH]c2ccccc12)NC(=O)CNC(=O)OC(C)(C)C)C(=O)N[C@@H](CC(=O)O)C(N)=O [3-{2-[2-(2-tert-Butoxycarbonylamino-acetylamino)-3-(1H-indol-3-yl)-propionylamino]-4-methylsulfanyl-butyrylamino}-succinamic acid] (HELM PEPTIDE1{[CC(C)(C)OC(=O)[*:2]].G.W.M.D.[am]}$$$$V2.0) | 25
6 | CC(C)C[C@H](NC(=O)[C@H](Cc1c[nH]c2ccccc12)NC(=O)OC(C)(C)C)C(=O)N[C@@H](CC(=O)O)C(=O)N(C)C [3-{2-[2-tert-Butoxycarbonylamino-3-(1H-indol-3-yl)-propionylamino]-4-methyl-pentanoylamino}-N,N-dimethyl-succinamic acid] (HELM PEPTIDE1{[CC(C)(C)OC(=O)[*:2]].W.L.D.[CN(C)[*:1]]}$$$$V2.0) | 100
7 | O=C(N[C@@H](Cc1c[nH]c2ccccc12)C(=O)O)c1ccc(Cl)cc1 [(S)-2-(4-Chloro-benzoylamino)-3-(1H-indol-3-yl)-propionic acid] | 250
8 | CCCC[C@H](NC(=O)[C@H](Cc1c[nH]c2ccccc12)NC(=O)OC(C)(C)C)C(=O)N[C@@H](CC(=O)O)C(N)=O [3-{2-[2-tert-Butoxycarbonylamino-3-(1H-indol-3-yl)-propionylamino]-hexanoylamino}-succinamic acid] (HELM PEPTIDE1{[CC(C)(C)OC(=O)[*:2]].W.[Nle].D.[am]}$$$$V2.0) | 30
9 | CC(C)C[C@H](NC(=O)[C@H](Cc1c[nH]c2ccccc12)NC(=O)OC(C)(C)C)C(=O)N[C@@H](CCC(=O)O)C(N)=O [4-{2-[2-tert-Butoxycarbonylamino-3-(1H-indol-3-yl)-propionylamino]-4-methyl-pentanoylamino}-4-carbamoyl-butyric acid] (HELM PEPTIDE1{[CC(C)(C)OC(=O)[*:2]].W.L.E.[am]}$$$$V2.0) | 20
10 | CC(C)(C)OC(=O)N[C@@H](Cc1c[nH]c2ccccc12)C(=O)N1CCC[C@H]1C(=O)N[C@@H](CC(=O)O)C(N)=O [3-({1-[2-tert-Butoxycarbonylamino-3-(1H-indol-3-yl)-propionyl]-pyrrolidine-2-carbonyl}-amino)-succinamic acid] (HELM PEPTIDE1{[CC(C)(C)OC(=O)[*:2]].W.P.D.[am]}$$$$V2.0) | 100
11 | CC(C)(C)OC(=O)N[C@@H](Cc1c[nH]c2ccccc12)C(=O)N[C@@H](Cc1ccccc1)C(=O)N[C@@H](CC(=O)O)C(N)=O [3-{2-[2-tert-Butoxycarbonylamino-3-(1H-indol-3-yl)-propionylamino]-3-phenyl-propionylamino}-succinamic acid] (HELM PEPTIDE1{[CC(C)(C)OC(=O)[*:2]].W.F.D.[am]}$$$$V2.0) | 30
12 | CC[C@H](C)[C@H](NC(=O)[C@H](Cc1c[nH]c2ccccc12)NC(=O)OC(C)(C)C)C(=O)N[C@@H](CC(=O)O)C(N)=O (HELM PEPTIDE1{[CC(C)(C)OC(=O)[*:2]].W.I.D.[am]}$$$$V2.0) | 50
